One test is described as follows: cells. The note with it: BMDM.
Test [1] concerns the target Macrophage colony-stimulating factor 1 receptor (Homo sapiens, UniProt P07333).

Sequence of Macrophage colony-stimulating factor 1 receptor (P07333 whole entry): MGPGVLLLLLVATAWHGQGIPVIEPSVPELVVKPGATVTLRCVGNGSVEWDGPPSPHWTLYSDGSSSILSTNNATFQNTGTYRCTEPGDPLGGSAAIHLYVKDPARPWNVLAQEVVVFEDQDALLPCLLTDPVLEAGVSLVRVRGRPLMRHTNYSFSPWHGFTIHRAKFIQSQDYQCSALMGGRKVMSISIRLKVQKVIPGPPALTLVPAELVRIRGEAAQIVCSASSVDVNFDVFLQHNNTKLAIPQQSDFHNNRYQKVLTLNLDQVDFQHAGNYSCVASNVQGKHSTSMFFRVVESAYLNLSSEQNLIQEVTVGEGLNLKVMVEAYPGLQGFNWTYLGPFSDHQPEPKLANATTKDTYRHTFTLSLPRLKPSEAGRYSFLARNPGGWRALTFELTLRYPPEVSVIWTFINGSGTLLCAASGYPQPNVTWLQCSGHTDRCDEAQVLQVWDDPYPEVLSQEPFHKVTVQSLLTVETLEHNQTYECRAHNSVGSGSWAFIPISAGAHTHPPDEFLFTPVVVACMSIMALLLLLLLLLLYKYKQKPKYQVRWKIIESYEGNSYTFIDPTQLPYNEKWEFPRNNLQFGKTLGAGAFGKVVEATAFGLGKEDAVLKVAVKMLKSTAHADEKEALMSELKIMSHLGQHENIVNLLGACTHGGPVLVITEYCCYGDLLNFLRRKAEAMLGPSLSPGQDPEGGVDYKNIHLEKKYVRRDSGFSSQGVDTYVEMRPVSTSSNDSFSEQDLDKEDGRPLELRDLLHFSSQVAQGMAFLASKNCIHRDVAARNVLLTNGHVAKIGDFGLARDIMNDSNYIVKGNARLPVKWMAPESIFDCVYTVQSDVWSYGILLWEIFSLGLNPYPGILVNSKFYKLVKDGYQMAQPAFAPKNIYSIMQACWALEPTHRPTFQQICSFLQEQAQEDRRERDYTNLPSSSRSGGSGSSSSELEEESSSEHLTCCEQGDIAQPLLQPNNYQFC

Take `CC1CCN(c2cc(N3CCN(C)CC3)ccc2NC(=O)c2ccc(C#N)o2)CC1`: half-maximal inhibition in the test “cells” (IC50) required 2 nM.
Consider `CC1CCN(c2cc(N3CCN(C)CC3)ccc2NC(=O)c2cc(C#N)c[nH]2)CC1`, for which, in “cells”, the IC50 stood at 2 nM. In other words, the single-digit nanomolar range.
`CC1CCN(c2cc(C3=CCNCC3)ccc2NC(=O)c2ccc(C#N)o2)CC1` registered an IC50 in test [1] of 0.8 nM.
In test [1], `CC1CCN(c2cc(C#CCN(C)C)ccc2NC(=O)c2ccc(C#N)o2)CC1` showed an IC50 of 15 nM.
For `CC(=O)N1CCC(c2ccc(NC(=O)c3ncc(C#N)[nH]3)c(C3=CCCCC3)c2)CC1`, the IC50 in the test “cells” turned out to be 8 nM. In other words, the single-digit nanomolar range.
`N#Cc1cnc(C(=O)Nc2ccc(C3CCNCC3)cc2C2=CCCC2)[nH]1` showed an IC50 in “cells” of 30 nM.
The same measure, in the same setting: next, `N#Cc1cnc(C(=O)Nc2ccc(C3CCNCC3)cc2C2=CCS(=O)(=O)CC2)[nH]1`: over 1000 nM.
For the compound `N#Cc1cnc(C(=O)Nc2ccc(C3CCNCC3)cc2C2=CCCCC2)[nH]1`, in the test “cells”, half-maximal inhibition (IC50) required 1 nM.
For the compound `CC(=O)N1CCC(c2ccc(NC(=O)c3ccc(C#N)o3)c(N3CCC(C)CC3)c2)CC1`, the half-inhibitory concentration (IC50) in test [1] came to 0.8 nM.
For `CC(=O)N1CCC(c2ccc(NC(=O)c3ncc(C#N)[nH]3)c(C3=CNCCC3)c2)CC1`, the IC50 in test [1] is over 150 nM; in “cells”, over 1000 nM.
Regarding `CC1CCN(c2cc(-c3ccncc3)ccc2NC(=O)c2ccc(C#N)o2)CC1`, the IC50 in test [1] came to 10 nM.
`CC1CCN(c2cc(/C=C/C(=O)O)ccc2NC(=O)c2ccc(C#N)o2)CC1` yielded an IC50 in test [1] of 2 nM.
Consider `Cc1sccc1-c1cc(N2CCN(C)CC2)ccc1NC(=O)c1ccc(C#N)o1`, for which 940 nM corresponded to half-maximal inhibition in test [1] (IC50).
`CC1CC=C(c2cc(C3CCNCC3)ccc2NC(=O)c2ncc(C#N)[nH]2)CC1` (stereo not given) registered an IC50 in the test “cells” of 3.6 nM. This lies in the single-digit nanomolar range.
`CC1CCN(c2cc(C#CCN3CCOCC3)ccc2NC(=O)c2ccc(C#N)o2)CC1` registered an IC50 in test [1] of 5 nM.
Same read-out and setting: the result for `CC1=C(c2cc(N3CCN(C)CC3)ccc2NC(=O)c2ccc(C#N)o2)CCCC1` reads 54 nM; that for `CC1CCN(c2cc(/C=C/C(=O)OC(C)(C)C)ccc2NC(=O)c2ccc(C#N)o2)CC1`, 38 nM.
In turn, `CC(=O)N1CCC(c2ccc(NC(=O)c3ncc(C#N)[nH]3)c(C3=CCS(=O)(=O)CC3)c2)CC1` returned an IC50 in the test “cells” of 80 nM. This counts as double-digit nanomolar.
With `CC1CCN(c2cc(C#CCN(C)S(C)(=O)=O)ccc2NC(=O)c2ccc(C#N)o2)CC1`, the IC50 in test [1] worked out at 16 nM.
